Target: T1, Aspergillus niger beta-glucosidase (CAB75696.1, SEQ ID NO:2) improved variant yEdQ885-BG (Aspergillus niger, UniProt Q9P8F4, Y363C/Y375F/Y610F)
T1 construct: strain yEdQ885, BG acid/base mutant #8
T1 sequence (Q9P8F4 20-860 Y363C/Y375F/Y610F): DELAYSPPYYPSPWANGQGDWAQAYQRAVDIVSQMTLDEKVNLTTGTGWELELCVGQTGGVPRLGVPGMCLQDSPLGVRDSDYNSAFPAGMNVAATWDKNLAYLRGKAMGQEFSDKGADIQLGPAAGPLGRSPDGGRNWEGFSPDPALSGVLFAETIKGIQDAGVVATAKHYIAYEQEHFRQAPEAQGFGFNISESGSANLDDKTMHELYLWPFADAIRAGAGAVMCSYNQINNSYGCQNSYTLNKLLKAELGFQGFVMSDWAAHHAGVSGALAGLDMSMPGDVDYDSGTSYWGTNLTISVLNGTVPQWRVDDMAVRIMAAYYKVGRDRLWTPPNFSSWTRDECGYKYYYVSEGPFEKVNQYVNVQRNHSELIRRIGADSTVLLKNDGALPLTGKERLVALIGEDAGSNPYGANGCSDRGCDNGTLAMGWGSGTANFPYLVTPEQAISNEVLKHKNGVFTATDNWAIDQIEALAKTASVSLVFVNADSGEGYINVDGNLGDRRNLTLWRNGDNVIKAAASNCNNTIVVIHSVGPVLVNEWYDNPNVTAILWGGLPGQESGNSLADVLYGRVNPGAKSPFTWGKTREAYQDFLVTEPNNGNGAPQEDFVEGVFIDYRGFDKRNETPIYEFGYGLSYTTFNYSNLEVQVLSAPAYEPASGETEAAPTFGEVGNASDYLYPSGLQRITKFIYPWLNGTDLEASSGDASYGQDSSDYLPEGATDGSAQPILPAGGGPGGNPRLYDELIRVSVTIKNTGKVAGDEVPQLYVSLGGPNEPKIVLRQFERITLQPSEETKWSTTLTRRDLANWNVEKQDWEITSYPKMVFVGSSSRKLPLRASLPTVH
Assay: BG kinetics, pNPG hydrolysis assay with glucose as competitive inhibitor, yEdQ885-BG
Type: biochemical
Excerpt: The beta-glucosidase (BG) gene from Aspergillus niger (Accession #CAB75696.1) was integrated into the TR3 yeast background at the T4U3 genomic site.
High resolution enzyme assays and kinetic testing comparing the beta-glucosidases described herein and commercial enzyme preparations were pursued to more clearly quantify differences in mutant BG enzymes compared to the wild type BG enzyme. Based on data presented herein, BG mutant YEdQ885 was selected for further analysis and compared to the BG activity present in commercial preparations of SP188 (Novozymes) and Accellerase® BG (DuPont) as well as wild type BG. […]
BG activity assay using pNPG is one of the two commonly used standard assays to measure BG activity, which utilizes hydrolysis of p-nitrophenyl-β-D-glucopyranoside (pNPG) by BG into a yellow colored product, p-nitrophenol (pNP), that has a strong absorbance at 405 nm. […] The reaction was then terminated by adding 100 μL of 0.25 M sodium carbonate, and the amount of pNP produced was determined by measuring absorbance at 405 nm using a predetermined calibration curve. […]
To determine the kinetic properties, a competitive inhibition mechanism was hypothesized as proposed in the literature (Chauve et al, 2010; Krogh et al, 2010). […] The turnover number, Kcat, can be calculated by Equation (2), where [Et] is the total amount of enzyme. […]

## OC[C@H]1OC(O)[C@H](O)[C@@H](O)[C@@H]1O (some centres unmarked) [glucose]
  Ki: 2190 ± 100 µM
Inhibitor influence, Km for pNPG / Ki for glucose, pH 5.0, 50° C.
  Km/Ki: 0.29
